{"source": "patent US12186314B2", "about": "“Compositions and methods for treatment, amelioration, and prevention of anesthesia-induced hypothermia” (ARIZONA BOARD OF REGENTS ON BEHALF OF THE UNIVERSITY OF …, priority 2015, dated 2025)", "key": {"[1]": {"molecular_target": "T1, TRPV1 (Rattus norvegicus, UniProt O35433)", "T1 sequence (O35433 whole entry)": "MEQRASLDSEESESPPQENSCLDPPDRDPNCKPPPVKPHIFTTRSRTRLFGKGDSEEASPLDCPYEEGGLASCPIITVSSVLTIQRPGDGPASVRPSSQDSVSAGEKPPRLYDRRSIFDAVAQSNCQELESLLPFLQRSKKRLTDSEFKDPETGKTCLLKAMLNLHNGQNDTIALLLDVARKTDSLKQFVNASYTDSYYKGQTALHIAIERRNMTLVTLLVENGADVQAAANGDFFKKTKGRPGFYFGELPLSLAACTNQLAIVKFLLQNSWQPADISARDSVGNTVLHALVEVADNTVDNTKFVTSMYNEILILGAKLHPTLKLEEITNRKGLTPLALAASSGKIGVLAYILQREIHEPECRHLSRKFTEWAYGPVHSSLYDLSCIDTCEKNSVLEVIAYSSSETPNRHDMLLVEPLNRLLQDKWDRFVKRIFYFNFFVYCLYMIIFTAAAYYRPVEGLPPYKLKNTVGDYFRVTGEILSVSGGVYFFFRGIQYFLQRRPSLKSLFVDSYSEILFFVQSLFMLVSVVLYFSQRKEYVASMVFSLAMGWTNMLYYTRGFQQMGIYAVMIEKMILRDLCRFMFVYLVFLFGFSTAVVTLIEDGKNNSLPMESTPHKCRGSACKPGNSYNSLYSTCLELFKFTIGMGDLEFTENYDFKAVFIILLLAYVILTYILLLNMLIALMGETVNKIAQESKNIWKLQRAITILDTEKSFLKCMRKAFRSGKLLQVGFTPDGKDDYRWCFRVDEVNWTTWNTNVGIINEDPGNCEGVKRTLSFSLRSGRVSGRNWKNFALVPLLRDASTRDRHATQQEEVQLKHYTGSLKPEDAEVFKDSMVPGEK", "assay": "isoflurane anesthesia-induced hypothermia in adult rats, various TRPV1 antagonists, rectal temperature", "type": "in vivo", "set-up": "from tissue; host or cells: whole live non-anesthetized rats", "settings": "isoflurane 2 L/min, 5% induction, 2.5% maintenance, 20 minutes post anesthesia-induction", "procedure": "After acclimatizing to the testing chamber and obtaining baseline core body temperature, adult rats were anesthetized with isoflurane (2 L/min, 5% induction, 2.5% maintenance) and the anesthetized animals were injected with vehicle or various TRPV1 antagonists at doses described and rectal temperature was monitored for 20 minutes post anesthesia-induction."}, "[2]": {"molecular_target": "T1, TRPV1", "set-up": "from tissue; host or cells: whole live non-anesthetized rats", "settings": "non-anesthetized (unanesthetized) rats, cited from earlier work"}, "[3]": {"molecular_target": "T1, TRPV1", "settings": "24 hours post surgery"}, "[4]": {"molecular_target": "T2, TRPV1 (Homo sapiens, UniProt Q8NER1)", "T2 construct": "host or cells: human subjects (clinical observations)", "T2 sequence (Q8NER1 whole entry)": "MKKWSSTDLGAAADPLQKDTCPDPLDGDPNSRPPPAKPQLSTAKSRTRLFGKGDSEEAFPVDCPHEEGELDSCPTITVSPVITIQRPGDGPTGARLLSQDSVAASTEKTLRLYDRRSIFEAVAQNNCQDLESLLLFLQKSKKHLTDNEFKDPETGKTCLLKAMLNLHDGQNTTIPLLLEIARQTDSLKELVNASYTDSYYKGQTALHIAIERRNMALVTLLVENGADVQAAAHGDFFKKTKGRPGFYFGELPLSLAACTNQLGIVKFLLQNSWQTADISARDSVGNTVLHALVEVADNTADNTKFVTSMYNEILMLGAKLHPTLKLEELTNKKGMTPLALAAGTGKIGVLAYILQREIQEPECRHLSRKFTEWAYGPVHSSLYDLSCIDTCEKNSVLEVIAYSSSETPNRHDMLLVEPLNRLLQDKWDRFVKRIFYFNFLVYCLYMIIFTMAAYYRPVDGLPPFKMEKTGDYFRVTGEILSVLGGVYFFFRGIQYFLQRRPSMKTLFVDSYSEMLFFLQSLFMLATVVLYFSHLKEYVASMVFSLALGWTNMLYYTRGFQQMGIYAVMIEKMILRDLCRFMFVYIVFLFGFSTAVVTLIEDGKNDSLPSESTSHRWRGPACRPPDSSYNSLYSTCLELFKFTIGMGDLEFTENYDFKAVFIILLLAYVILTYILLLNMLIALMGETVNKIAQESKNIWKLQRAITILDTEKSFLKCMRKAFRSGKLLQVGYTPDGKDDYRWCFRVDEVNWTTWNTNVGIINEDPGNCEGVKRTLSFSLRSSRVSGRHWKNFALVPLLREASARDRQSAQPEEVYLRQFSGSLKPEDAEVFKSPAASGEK", "settings": "non-anesthetized humans; cited from earlier work"}, "[5]": {"molecular_target": "T1, TRPV1", "assay": "volatile (isoflurane) anesthesia-induced hypothermia in adult rats, rectal core body temperature", "type": "in vivo", "set-up": "from tissue; host or cells: whole live non-anesthetized rats", "settings": "isoflurane 5% induction, 2.5% maintenance, 0.01, 0.1 and 1 mg/kg, 5 min intervals, 0.1 and 1 mg/kg significant at all time points (p<0.01)", "procedure": "Briefly, after obtaining baseline core body temperature, lightly restrained rats were anesthetized with isoflurane (5% induction, 2.5% maintenance), the effect of varying dose of AMG 517 (0.01, 0.1 and 1 mg/kg) and control (vehicle) on rectally-measured temperature (core body temperature) was measured at 5 min intervals. At 20 minutes, a warming blanket was used to prevent further temperature drop in the control (vehicle) group. Vehicle treated rats developed hypothermia after exposure to anesthesia."}, "[6]": {"molecular_target": "T1, TRPV1", "assay": "isoflurane anesthesia-induced hypothermia in neonatal rats, core body temperature", "type": "in vivo", "set-up": "from tissue; host or cells: whole live non-anesthetized rats", "settings": "neonatal rats (age 10d), 1 mg/kg i.v. (at 20 min time point) and 2 mg/kg (all time points)", "procedure": "Briefly, after gently separating neonatal male or female rats (age 10d) from the littermates, the animals were exposed to isoflurane anesthesia (5% induction, 2.5% maintenance), and then were injected with either vehicle or AMG 517 (1-2 mg/kg, i.v.) and core body temperature was measured at 5 minute intervals."}, "[7]": {"molecular_target": "T1, TRPV1", "assay": "core body temperature during isoflurane anesthesia and in the post-anesthesia period", "type": "in vivo", "set-up": "from tissue; host or cells: whole live non-anesthetized rats", "settings": "rats", "procedure": "After taking baseline core body temperature, rats were anesthetized with isoflurane and quickly injected with either vehicle or 0.1 mg/kg of AMG 517 via a tail vein injection. The core body temperature was measured every 5 minutes during the duration of anesthesia (45 min) and 30 minutes after that (n=8 per group) (see, FIG. 3)."}, "[8]": {"molecular_target": "T1, TRPV1", "assay": "ketamine-induced hypothermia in rats, core body temperature", "type": "in vivo", "set-up": "from tissue; host or cells: whole live non-anesthetized rats", "settings": "ketamine 100 mg/kg, 0.01-1 mg/kg tail vein", "procedure": "This example describes the use of AMG 517 to reverse hypothermia induced by a non-volatile anesthetic (ketamine) (FIG. 5). After taking baseline core body temperature, rats were anesthetized with ketamine (100 mg/kg) and quickly injected with either vehicle or 0.01-1 mg/kg of AMG 517 via a tail vein injection. The core body temperature was measured every 5 minutes for 20 minutes post ketamine injection (n=8 per group)."}}, "note": "Entries after “also recorded” stand apart in the source; their conditions may differ. Read-outs that look alike come from different tables or passages of the source.", "data": [{"smiles": "COc1cccc(NC(=O)/C=C/c2ccc(Cl)cc2)c1", "note": "[SB366791]", "values": [{"measurement": "reversal/prevention of anesthesia-induced hypothermia (rectal temperature)", "setting": "[1]", "value": "dose dependently reverse anesthesia-induced hypothermia"}, {"measurement": "ability to cause hyperthermia", "setting": "[2]", "value": "unable to cause hyperthermia"}, {"measurement": "ability to cause hyperthermia", "setting": "[2]; listed as SB", "value": "cause hyperthermia in unanesthetized rats"}]}, {"smiles": "CN1CC[C@]23c4c5ccc(O)c4O[C@H]2[C@@H](O)C=C[C@H]3[C@H]1C5", "note": "[morphine]", "values": [{"measurement": "morphine analgesic effect on postsurgical thermal and mechanical hyperalgesia", "setting": "[3]; animals that received preemptive TRPV1 antagonist treatment before the surgical insult", "value": "analgesic effect at much lower doses of 0.3 and 0.6 mg/kg"}, {"measurement": "morphine analgesic effect on postsurgical thermal and mechanical hyperalgesia", "setting": "[3]; vehicle treated animals", "value": "not responsive to morphine until the dose of morphine was raised to 1 mg/kg"}]}, {"smiles": "CC(C)(C)c1ccc(/C=C/C(=O)Nc2ccc3c(c2)OCCO3)cc1", "note": "[AMG 9810]", "values": [{"measurement": "ability to cause hyperthermia", "setting": "[4]", "value": "able to cause hyperthermia"}, {"measurement": "reversal/prevention of anesthesia-induced hypothermia (rectal temperature)", "setting": "[1]", "value": "dose dependently reverse anesthesia-induced hypothermia"}, {"measurement": "ability to cause hyperthermia", "setting": "[2]", "value": "able to cause hyperthermia"}, {"measurement": "ability to cause hyperthermia", "setting": "[2]; listed as AMG", "value": "cause hyperthermia in unanesthetized rats"}]}, {"smiles": "Cc1cc2c(NC(=O)N[C@@H]3CC(CF)(CF)Oc4cc(Cl)ccc43)cccc2cn1", "note": "[A-1165442]", "values": [{"measurement": "ability to cause hyperthermia", "setting": "[2]", "value": "unable to cause hyperthermia"}]}, {"smiles": "CC(C)(C)c1ccc2c(c1)CC[C@H]2NC(=O)Nc1cccc2[nH]ncc12", "note": "[ABT 102]", "values": [{"measurement": "ability to cause hyperthermia", "setting": "[4]", "value": "able to cause hyperthermia"}, {"measurement": "reversal/prevention of anesthesia-induced hypothermia (rectal temperature)", "setting": "[1]", "value": "dose dependently reverse anesthesia-induced hypothermia"}, {"measurement": "ability to cause hyperthermia", "setting": "[2]", "value": "able to cause hyperthermia"}, {"measurement": "ability to cause hyperthermia", "setting": "[2]; listed as ABT", "value": "cause hyperthermia in unanesthetized rats"}]}, {"smiles": "Oc1cc2c(cc1O)CN(C(=S)NCCc1ccc(Cl)cc1)CCC2", "note": "[capsazepine]", "values": [{"measurement": "reversal/prevention of anesthesia-induced hypothermia (rectal temperature)", "setting": "[1]", "value": "able to prevent anesthesia-induced hypothermia; also recorded: dose dependently reverse anesthesia-induced hypothermia"}, {"measurement": "ability to cause hyperthermia", "setting": "[2]", "value": "unable to cause hyperthermia; also recorded: don't"}]}, {"smiles": "CC(=O)Nc1nc2c(Oc3cc(-c4ccc(C(F)(F)F)cc4)ncn3)cccc2s1", "note": "[AMG 517]", "values": [{"measurement": "opioid sparing effect on postsurgical thermal and mechanical hyperalgesia", "setting": "[3]; rats, preemptive tail vein dose before incision, subcutaneous morphine", "value": "opioid sparing effect"}, {"measurement": "ability to cause hyperthermia", "setting": "[4]", "value": "able to cause hyperthermia"}, {"measurement": "reversal of anesthesia-induced hypothermia (rectally-measured core body temperature)", "setting": "[5]", "value": "dose dependently reversed anesthesia-induced hypothermia"}, {"measurement": "reversal of anesthesia-induced hypothermia (core body temperature)", "setting": "[6]", "value": "partially and statistically significantly"}, {"measurement": "hyperthermia in the post-anesthesia period", "setting": "[7]; 0.1 mg/kg tail vein, 30 minutes after anesthesia, 0.1 mg/kg", "value": "does not produce hyperthermia in the post-anesthesia period; also recorded: did not cause hyperthermia even when the animals recovered from anesthesia"}, {"measurement": "development of hypothermia during anesthesia (core body temperature)", "setting": "[7]; isoflurane 45 min, 0.1 mg/kg tail vein injection", "value": "never developed hypothermia throughout the anesthesia period"}, {"measurement": "hyperthermia under ketamine anesthesia", "setting": "[8]", "value": "without causing hyperthermia at all time points tested"}, {"measurement": "reversal of ketamine-induced hypothermia (core body temperature)", "setting": "[8]; 20 minutes post ketamine", "value": "dose dependently and statistically significantly"}, {"measurement": "ability to cause hyperthermia", "setting": "[2]", "value": "able to cause hyperthermia"}]}]}
